ChEMBL document CHEMBL1201862, “PubChem BioAssay data set” (2004)
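96-well plates; 48 h exposure; 5 concentrations. Endpoints by linear interpolation between flanking doses. Not reached: highest tested concentration assigned. GI50 = concentration required for 50% inhibition of growth.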 The source made the active and inactive calls. Cut-off read from the data, not from the text of the source: active = GI50 up to about 1.1 µM and inactive = higher.

Legend:
Assay in all cases: NCI anticancer screen, dose series, 48 h
[1] = test system: 786-0
[2] = test system: A498
[3] = test system: CAKI-1
[4] = test system: CCRF-CEM
[5] = test system: COLO 205
[6] = test system: DLD-1
[7] = test system: DMS-114
[8] = test system: DMS-273
[9] = test system: HCC 2998
[10] = test system: HCT-116
[11] = test system: HL-60
[12] = test system: HOP-62
[13] = test system: HOP-92
[14] = test system: IGROV-1
[15] = test system: K562
[16] = test system: LXFL 529
[17] = test system: M14
[18] = test system: M19-MEL
[19] = test system: MOLT-4
[20] = test system: Malme-3M
[21] = test system: NCI-H226
[22] = test system: NCI-H23
[23] = test system: NCI-H460
[24] = test system: NCI-H522
[25] = test system: OVCAR-4
[26] = test system: RPMI-8226
[27] = test system: RXF 631
[28] = test system: SF-268
[29] = test system: SF-539
[30] = test system: SK-MEL-28
[31] = test system: SK-MEL-2
[32] = test system: SK-OV-3
[33] = test system: SN12C
[34] = test system: SNB-75
[35] = test system: SNB-78
[36] = test system: SR
[37] = test system: UACC-62
[38] = test system: UO-31
[39] = test system: XF498
[40] = test system: A549
[41] = test system: ACHN
[42] = test system: EKVX
[43] = test system: HCT-15
[44] = test system: HT-29
[45] = test system: KM12
[46] = test system: LOX IMVI
[47] = test system: OVCAR-3
[48] = test system: OVCAR-5
[49] = test system: OVCAR-8
[50] = test system: RXF 393
[51] = test system: SF-295
[52] = test system: SK-MEL-5
[53] = test system: SNB-19
[54] = test system: SW-620
[55] = test system: TK-10
[56] = test system: U-251
[57] = test system: UACC-257
[58] = test system: HOP-18
[59] = test system: KM-20L2

Measured: GI50

CCN(CC)C1CC(n2cc(C)c(=O)[nH]c2=O)OC1CO (configuration not stated)
inactive: [1] > 100 µM | [2] > 100 µM | [3] > 100 µM | [4] > 100 µM | [5] > 100 µM | [6] > 100 µM | [7] > 100 µM | [8] > 100 µM | [9] > 100 µM | [10] > 100 µM | [11] > 100 µM | [12] > 100 µM | [13] > 100 µM | [14] > 100 µM | [15] > 100 µM | [16] > 100 µM | [17] > 100 µM | [18] > 100 µM | [19] > 100 µM | [20] > 100 µM | [21] > 100 µM | [22] > 100 µM | [23] > 100 µM | [24] > 100 µM | [25] > 100 µM | [26] > 100 µM | [27] > 100 µM | [28] > 100 µM | [29] > 100 µM | [30] > 100 µM | [31] > 100 µM | [32] > 100 µM | [33] > 100 µM | [34] > 100 µM | [35] > 100 µM | [36] > 100 µM | [37] > 100 µM | [38] > 100 µM | [39] > 100 µM

CCCCSN1C(=O)c2ccccc2C1=S
> 100 µM: [43]
inactive: [1] 34.1 µM | [2] > 100 µM | [40] > 100 µM | [41] > 100 µM | [3] 32.6 µM | [4] 15.9 µM | [5] 62.4 µM | [6] 44.8 µM | [7] 45.5 µM | [8] 45.3 µM | [42] > 100 µM | [9] 73.5 µM | [10] 40.6 µM | [11] 21.4 µM | [12] > 100 µM | [13] 41.1 µM | [44] 29.4 µM | [14] > 100 µM | [15] 22.9 µM | [45] 37.8 µM | [46] 54.2 µM | [17] 41.6 µM | [18] 56.2 µM | [19] 18.5 µM | [20] 63.7 µM | [22] > 100 µM | [23] > 100 µM | [24] > 10 µM | [47] > 100 µM | [25] 76.6 µM | [48] > 100 µM | [49] 60.4 µM | [26] 21 µM | [50] 81.3 µM | [27] > 100 µM | [28] 48.9 µM | [51] 39.3 µM | [29] 33.3 µM | [30] > 100 µM | [31] 34.4 µM | [52] 60.5 µM | [32] > 100 µM | [33] 71.3 µM | [53] > 100 µM | [34] 72.4 µM | [35] 49.3 µM | [54] 32.9 µM | [55] > 100 µM | [56] > 100 µM | [57] 57.3 µM | [37] 55 µM | [38] 53.3 µM | [39] > 100 µM

CC(=O)O[C@H]1CSC[C@@H](OC(C)=O)C1[N+](=O)[O-] (some centres not stated)
30.1 µM: [43]
inactive: [1] 19.2 µM | [2] > 100 µM | [40] > 100 µM | [41] 93.5 µM | [3] 48.6 µM | [4] 19.5 µM | [5] 21.4 µM | [7] 39.1 µM | [8] > 100 µM | [42] > 100 µM | [9] 33.7 µM | [10] 95.3 µM | [11] 23.2 µM | [58] 50.7 µM | [12] > 100 µM | [13] 19 µM | [44] 48.2 µM | [14] > 100 µM | [15] 26.4 µM | [59] > 100 µM | [45] 63 µM | [16] 18 µM | [17] 29.6 µM | [18] 47.3 µM | [19] 27.8 µM | [20] 23 µM | [21] > 100 µM | [22] > 100 µM | [23] > 100 µM | [24] 19.4 µM | [47] 21.5 µM | [25] 54.8 µM | [48] > 100 µM | [49] 45.5 µM | [26] 22.5 µM | [50] 20.1 µM | [27] > 100 µM | [28] > 100 µM | [51] > 100 µM | [29] 43.8 µM | [30] 26.8 µM | [31] 27.3 µM | [52] 47.8 µM | [32] > 100 µM | [33] > 100 µM | [53] > 100 µM | [34] 65.2 µM | [35] 33.4 µM | [54] 27 µM | [55] > 100 µM | [56] > 100 µM | [57] 20.6 µM | [37] 65.8 µM
